Data set [1] deals with Radical scavenging activity. The experiment in a line: Antioxidant activity assessed as inhibition of DPPH radical generation relative to alpha-tocopherol. The format is functional. Also noted: scale not given: the % may be the effect or the level left. (In general: Loss of DPPH colour is used to gauge radical scavenging.)
Data set [2] deals with Radical scavenging activity. The experiment in a line: Antioxidant activity assessed as inhibition of DPPH radical generation. The format is functional.
Data set [3] is described as follows: Oral bioavailability in rat at 500 mg/kg. The format is ADME, organism-based. As to conditions: in vivo.

For orientation: IC50 means the point on the concentration scale where inhibition reaches its midpoint. One may read the bioavailability as the share of a dose that reaches the circulation, judged against a reference dose that is usually intravenous.

Turning to `COc1cc(C2NC(c3cc(OC)c(OC)c(OC)c3)C3CC(C)CC2C3=O)cc(OC)c1OC` (stereo unspecified), in data set [1], the Activity worked out at 20%.
For `COc1ccc(C2NC(c3ccc(OC)c(OC)c3)C3CC(C)CC2C3=O)cc1OC` (stereo unspecified), the Activity in data set [1] was 20%.
With `COc1ccc(OC)c(C2NC(c3cc(OC)ccc3OC)C3CC(C)CC2C3=O)c1` (stereo unspecified), the Activity in data set [1] was found to be 20%.
For the molecule `Cc1c(C)c2c(c(C)c1O)CC[C@@](C)(CCC[C@H](C)CCC[C@H](C)CCCC(C)C)O2` [ALPHA-TOCOPHEROL], the 50% inhibitory concentration (IC50) in data set [2] is 59 µM.
As for `COc1cc(/C=C/C(=O)CC(=O)/C=C/c2ccc(O)c(OC)c2)ccc1O` [CURCUMIN], in data set [2], the half-inhibitory concentration (IC50) worked out at 35.1 µM. In data set [3], the bioavailability turned out to be 1%.
